Experimental findings from patent US20250161297A1, “COMPOSITIONS AND METHODS FOR INHIBITING FSP1” (THE REGENTS OF THE UNIVERSITY OF CALIFORNIA, priority 2022, published 2025) are described below.

Holding throughout (format): cell-based
One series deals with H460^C FSP1^KO cells. Briefly: FDA and Bioactive Library synthetic lethal screen. The conditions noted are these: 24 h. On the procedure: FDA and Bioactive Library Screen: For FDA and Bioactive Library Screen experiments, cells were seeded at a density of 750 cells per 25 uL per well in black 384-well plates (NUNC) and (Corning) 24 hr before start of imaging. After 24 hr, an additional 25 μL of drug infused medium containing 30 nM SYTOX Green Dead Cell Stain was carefully placed into the wells on top of existing medium. The plates were immediately transferred to an IncuCyte S3 imaging system (Essen Bioscience) enclosed in an incubator set to 37° C. and 5% CO2. One image per well were captured in the phase, green, and red channels every 4 hr over a 24 hr period, and the ratio of SYTOX Green-positive objects (dead cells) to SYTOX Green-positive plus SgSAFE mCherry-positive objects (total cells) was quantified using S3 image analysis software (Essen Bioscience). For each treatment condition, the SYTOX-to-‘SYTOX+mCherry’-object ratio was plotted against the 24 hr imaging interval, the Area Under the Curve (AUC) was calculated, and the average AUC was plotted as a function of drug concentration (for example, RSL3) using Prism (GraphPad). To calculate the half-maximal effective concentration (EC50) values, the AUC curve was fit to a variable slope function comparing response to drug concentration. […]

The subject of series [1] is H460^C cells. As to the kind of experiment: DHA- and FINO2-induced cell death with FSEN1 co-treatment. On the procedure: (§1) For cell-based screen, cells were seeded in triplicate at a density of 500-750 cells per 50 μL per well in black 384-well plates (NUNC) and (Corning) 24 hr before start of imaging. After 24 hr, an additional 50 μL of drug infused medium containing 30 nM SYTOX Green Dead Cell Stain was carefully placed into the wells on top of existing medium. The plates were immediately transferred to an IncuCyte S3 imaging system (Essen Bioscience) enclosed in an incubator set to 37° C. and 5% CO2. One image per well were captured in the phase, green, and red channels every 1.5 or 3 hr over a 24 hr period, and the ratio of SYTOX Green-positive objects (dead cells) to SYTOX Green-positive plus Sg-SAFE mCherry-positive objects (total cells) was quantified using S3 image analysis software (Essen Bioscience). For each treatment condition, the SYTOX-to-′SYTOX+mCherry′-object ratio was plotted against the 24 hr imaging interval, the Area Under the Curve (AUC) was calculated and the average AUC was plotted using Prism (GraphPad). To calculate the half-maximal effective concentration (EC50) values, the AUC curve was fit to a variable slope function comparing response to drug concentration.
(§2) Synergy experiments: For cell-based synergy experiments, cells were seeded at a density of 750 cells per 25 μL per well in four black 384-well plates (Corning) 24 hr before start of imaging. After 24 hr, an additional 25 μL of drug infused medium containing 30 nM SYTOX Green Dead Cell Stain was carefully placed into the wells on top of existing medium. The plates were immediately transferred to an IncuCyte S3 imaging system (Essen Bioscience) enclosed in an incubator set to 37° C. and 5% CO2. One image per well were captured in the phase, green, and red channels every 4 hr over a 24 hr period, and the ratio of SYTOX Green-positive objects (dead cells) to SYTOX Green-positive plus Sg-SAFE mCherry-positive objects (total cells) was quantified using S3 image analysis software (Essen Bioscience). For each treatment condition, the SYTOX-to-′SYTOX+mCherry′-object ratio was plotted against the 24 hr imaging interval, the Area Under the Curve (AUC) was calculated, and the average AUC was plotted as a function of drug concentration (for example, RSL3) using Prism (GraphPad). To calculate the half-maximal effective concentration (EC50) values, the AUC curve was fit to a variable slope function comparing response to drug concentration.

The subject of series [2] is H460^C cells. Briefly: GPX4 inhibitor-induced cell death with FSEN1 co-treatment. On the procedure:
as §1, §2

For series [3], the system named is panel of cancer cell lines of various tissue origins. Briefly: RSL3-induced cell death in a panel of cancer cell lines. The conditions noted are these: RSL3 plus FSEN1; 2 μM Fer-1. On the procedure: as §1, with “concentration. […]” for “concentration.”

Residues, ends and D or L forms follow the SMILES beside them. *: point of attachment. Cbz = O=C(OCc1ccccc1)*; CH2F = FC*

One may read the EC50 as the concentration at which the effect is half-maximal. Take `C[C@H]1[C@@H](O)O[C@@H]2O[C@@]3(C)CC[C@H]4[C@H](C)CC[C@@H]1[C@@]24OO3` [DHA, dihydroartemisinin]: in the series on H460^C FSP1^KO cells, the “cytotoxicity in H460^C FSP1^KO cells” value was “selectively induced cell death”. Further, the EC50 in the series with H460^C cells [1] (DHA and FSEN1 treatment together) stood at 21.3 µM.

As for `CN1C(=O)NC(Cc2c[nH]c3c(Cl)cccc23)C1=O` (stereo not drawn) [Nects], the “effect on cell death induced by co-treatment of FSEN1 with RSL3” value (from here on “effect on cell death induced … with RSL3”) in the series with H460^C cells [2] is “no effect”. `COC(=O)c1ccc([C@@H]2c3[nH]c4ccccc4c3C[C@@H](C(=O)OC)N2C(=O)CCl)cc1` [RSL3]: the “cytotoxicity in H460^C FSP1^KO cells” value in the series with H460^C FSP1^KO cells is given as “cytotoxic”. For `COC(=O)C[C@H](NC(=O)[C@H](C)NC(=O)[C@@H](NC(=O)OCc1ccccc1)C(C)C)C(=O)CF` [Z-VAD] (Cbz-Val-Ala-Asp(OMe)-CH2F), the “effect on cell death induced … with RSL3” value in the series with H460^C cells [2] is reported as “no effect”. Consider `CCOC(=O)c1ccc(NC2CCCCC2)c(N)c1` [ferrostatin-1], for which the “effect on cell death induced … with RSL3” value with H460^C cells [2] is “blocked”. In addition, the “effect on cell death by co-treatment” value in series [3] is given as “rescued”. The “effect on cell death induced by DHA and FSEN1 together” value in the series on H460^C cells [1] was “strongly suppressed”. Consider `COC1=C(OC)C(=O)C(CCCCCCCCCCO)=C(C)C1=O` [idebenone], for which, in the series on H460^C cells [2], the “effect on cell death induced … with RSL3” value is listed as “blocked”. Besides, the “effect on cell death induced by DHA and FSEN1 together” value in the series with H460^C cells [1] is “strongly suppressed”. For tocopherol the same measures were “blocked” and “strongly suppressed”.
